Legend:
[1] = target: Mitogen-activated protein kinase 3 (Homo sapiens, UniProt P27361); assay: Inhibition of ERK-1 (unknown origin) using GST-SLP-76 as peptide substrate incubated for 10 mins in presence of [gamma-33P]ATP by scintillation counter assay
[2] = target: T1, Cytoplasmic tyrosine-protein kinase BMX (Homo sapiens, UniProt P51813); assay: Inhibition of Bmx (unknown origin) using GST-SLP-76 as peptide substrate incubated for 10 mins in presence of [gamma-33P]ATP by scintillation counter assay
T1 sequence (P51813 whole entry): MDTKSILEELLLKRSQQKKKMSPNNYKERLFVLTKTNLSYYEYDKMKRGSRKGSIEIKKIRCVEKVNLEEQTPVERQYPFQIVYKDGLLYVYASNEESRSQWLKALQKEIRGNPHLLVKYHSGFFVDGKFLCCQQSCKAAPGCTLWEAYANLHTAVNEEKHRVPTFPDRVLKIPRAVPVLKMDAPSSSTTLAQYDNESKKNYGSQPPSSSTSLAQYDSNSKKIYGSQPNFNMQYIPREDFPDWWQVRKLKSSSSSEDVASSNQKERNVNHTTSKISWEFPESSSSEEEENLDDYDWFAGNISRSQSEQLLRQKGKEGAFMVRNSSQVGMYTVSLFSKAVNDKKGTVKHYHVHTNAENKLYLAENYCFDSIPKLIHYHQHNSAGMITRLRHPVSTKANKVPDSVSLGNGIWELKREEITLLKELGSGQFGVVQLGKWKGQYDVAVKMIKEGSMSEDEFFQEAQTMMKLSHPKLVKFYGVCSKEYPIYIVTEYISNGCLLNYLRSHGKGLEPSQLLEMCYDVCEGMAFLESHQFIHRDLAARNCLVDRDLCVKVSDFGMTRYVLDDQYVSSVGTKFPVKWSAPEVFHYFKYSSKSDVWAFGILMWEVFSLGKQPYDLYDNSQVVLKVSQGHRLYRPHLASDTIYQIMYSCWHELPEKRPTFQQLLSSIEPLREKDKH

[3] = target: T2, Tyrosine-protein kinase TXK (Homo sapiens, UniProt P42681); assay: Inhibition of Txk (unknown origin) using GST-SLP-76 as peptide substrate incubated for 10 mins in presence of [gamma-33P]ATP by scintillation counter assay
T2 sequence (P42681 whole entry): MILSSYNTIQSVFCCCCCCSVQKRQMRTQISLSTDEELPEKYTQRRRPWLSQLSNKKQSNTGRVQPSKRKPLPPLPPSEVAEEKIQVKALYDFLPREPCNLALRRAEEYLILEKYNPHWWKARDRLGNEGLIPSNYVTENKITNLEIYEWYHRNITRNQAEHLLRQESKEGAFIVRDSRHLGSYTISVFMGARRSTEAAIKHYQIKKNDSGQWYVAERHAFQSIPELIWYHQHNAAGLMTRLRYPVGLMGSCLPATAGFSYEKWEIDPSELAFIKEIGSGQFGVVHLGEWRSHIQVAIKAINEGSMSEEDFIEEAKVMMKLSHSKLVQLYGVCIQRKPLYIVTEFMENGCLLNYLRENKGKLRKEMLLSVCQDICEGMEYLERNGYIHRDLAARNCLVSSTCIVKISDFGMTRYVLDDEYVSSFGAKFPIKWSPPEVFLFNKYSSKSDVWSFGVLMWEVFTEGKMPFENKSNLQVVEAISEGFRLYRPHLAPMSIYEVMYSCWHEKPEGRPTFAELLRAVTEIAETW

Protein kinase C (PKC) = assay: Inhibition of PKC (unknown origin) using GST-SLP-76 as peptide substrate incubated for 10 mins in presence of [gamma-33P]ATP by scintillation counter assay; assay type: protein assay, Homo sapiens
[4] = target: T3, Tyrosine-protein kinase Tec (Homo sapiens, UniProt P42680); assay: Inhibition of Tec (unknown origin) using GST-SLP-76 as peptide substrate incubated for 10 mins in presence of [gamma-33P]ATP by scintillation counter assay
T3 sequence (P42680 whole entry): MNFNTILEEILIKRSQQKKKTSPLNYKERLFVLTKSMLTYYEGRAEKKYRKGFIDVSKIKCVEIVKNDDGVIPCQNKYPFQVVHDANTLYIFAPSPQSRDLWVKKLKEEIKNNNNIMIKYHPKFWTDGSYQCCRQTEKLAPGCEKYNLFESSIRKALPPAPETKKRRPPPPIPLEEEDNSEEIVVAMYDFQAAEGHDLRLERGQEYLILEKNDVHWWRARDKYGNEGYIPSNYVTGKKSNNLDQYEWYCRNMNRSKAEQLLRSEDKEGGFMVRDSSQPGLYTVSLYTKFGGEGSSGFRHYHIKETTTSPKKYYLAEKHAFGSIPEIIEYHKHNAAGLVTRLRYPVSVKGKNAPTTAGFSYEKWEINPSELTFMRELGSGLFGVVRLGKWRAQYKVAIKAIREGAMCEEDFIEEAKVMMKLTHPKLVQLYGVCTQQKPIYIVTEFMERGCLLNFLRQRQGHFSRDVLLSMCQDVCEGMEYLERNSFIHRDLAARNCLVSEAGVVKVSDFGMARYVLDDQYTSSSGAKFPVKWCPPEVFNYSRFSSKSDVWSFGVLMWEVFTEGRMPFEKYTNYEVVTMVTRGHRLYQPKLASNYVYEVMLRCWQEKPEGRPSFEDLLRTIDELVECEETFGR

[5] = target: Epidermal growth factor receptor (Homo sapiens, UniProt P00533); assay: Inhibition of EGFR (unknown origin) using GST-SLP-76 as peptide substrate incubated for 10 mins in presence of [gamma-33P]ATP by scintillation counter assay
Epidermal growth factor receptor, sequence (P00533 whole entry): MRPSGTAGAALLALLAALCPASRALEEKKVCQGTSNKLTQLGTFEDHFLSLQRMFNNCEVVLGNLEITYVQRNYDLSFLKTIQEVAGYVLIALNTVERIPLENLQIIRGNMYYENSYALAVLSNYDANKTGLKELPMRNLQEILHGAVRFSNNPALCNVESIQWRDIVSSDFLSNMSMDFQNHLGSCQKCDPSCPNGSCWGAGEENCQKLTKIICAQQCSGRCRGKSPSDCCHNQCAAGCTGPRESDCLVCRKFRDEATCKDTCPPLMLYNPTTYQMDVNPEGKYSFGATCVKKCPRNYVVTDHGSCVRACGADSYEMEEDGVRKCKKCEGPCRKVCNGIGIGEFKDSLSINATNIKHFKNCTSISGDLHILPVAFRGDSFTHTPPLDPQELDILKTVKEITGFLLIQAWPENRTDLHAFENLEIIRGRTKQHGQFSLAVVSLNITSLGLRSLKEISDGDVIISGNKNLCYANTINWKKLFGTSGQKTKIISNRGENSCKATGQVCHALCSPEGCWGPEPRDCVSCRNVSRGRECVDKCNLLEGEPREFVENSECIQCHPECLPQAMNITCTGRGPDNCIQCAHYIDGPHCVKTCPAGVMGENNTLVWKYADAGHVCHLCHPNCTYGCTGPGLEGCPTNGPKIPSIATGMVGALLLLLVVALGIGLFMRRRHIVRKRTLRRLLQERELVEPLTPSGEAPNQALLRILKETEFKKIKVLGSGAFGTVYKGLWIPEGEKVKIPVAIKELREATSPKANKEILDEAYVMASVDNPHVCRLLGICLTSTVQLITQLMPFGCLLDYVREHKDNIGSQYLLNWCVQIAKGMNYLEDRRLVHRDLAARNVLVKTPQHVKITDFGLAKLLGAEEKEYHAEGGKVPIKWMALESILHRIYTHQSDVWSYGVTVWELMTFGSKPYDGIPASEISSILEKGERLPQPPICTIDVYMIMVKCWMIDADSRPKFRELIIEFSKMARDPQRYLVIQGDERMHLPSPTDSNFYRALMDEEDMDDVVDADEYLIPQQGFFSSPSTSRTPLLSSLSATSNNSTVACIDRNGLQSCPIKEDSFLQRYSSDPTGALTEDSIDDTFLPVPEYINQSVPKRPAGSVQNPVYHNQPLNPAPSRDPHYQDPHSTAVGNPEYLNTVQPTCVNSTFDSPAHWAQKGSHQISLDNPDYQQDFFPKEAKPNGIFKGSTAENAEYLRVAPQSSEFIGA

[6] = target: T4, Tyrosine-protein kinase ZAP-70 (Homo sapiens, UniProt P43403); assay: Inhibition of ZAP-70 (unknown origin) using GST-SLP-76 as peptide substrate incubated for 10 mins in presence of [gamma-33P]ATP by scintillation counter assay
T4 sequence (P43403 whole entry): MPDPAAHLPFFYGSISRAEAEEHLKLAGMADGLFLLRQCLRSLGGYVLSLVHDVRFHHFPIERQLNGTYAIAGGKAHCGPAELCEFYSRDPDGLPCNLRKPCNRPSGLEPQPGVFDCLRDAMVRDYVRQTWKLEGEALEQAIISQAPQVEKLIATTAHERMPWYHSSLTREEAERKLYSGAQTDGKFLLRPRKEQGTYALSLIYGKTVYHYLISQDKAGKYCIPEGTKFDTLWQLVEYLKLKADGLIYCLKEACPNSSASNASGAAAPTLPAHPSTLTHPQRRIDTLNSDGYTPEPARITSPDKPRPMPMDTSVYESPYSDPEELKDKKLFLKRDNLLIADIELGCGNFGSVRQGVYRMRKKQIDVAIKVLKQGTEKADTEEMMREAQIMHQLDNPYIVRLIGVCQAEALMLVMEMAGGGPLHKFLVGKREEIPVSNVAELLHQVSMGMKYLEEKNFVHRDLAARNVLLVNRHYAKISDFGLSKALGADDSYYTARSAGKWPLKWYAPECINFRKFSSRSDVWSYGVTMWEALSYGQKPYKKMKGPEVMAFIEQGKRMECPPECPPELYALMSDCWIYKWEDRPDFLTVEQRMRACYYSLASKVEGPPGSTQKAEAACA

[7] = target: cAMP-dependent protein kinase (PKA) (Homo sapiens, UniProt P22694+P17612+P22612); assay: Inhibition of PKA (unknown origin) using GST-SLP-76 as peptide substrate incubated for 10 mins in presence of [gamma-33P]ATP by scintillation counter assay; assay type: protein assay
[8] = target: Tyrosine-protein kinase BTK (Homo sapiens, UniProt Q06187); assay: Inhibition of Btk (unknown origin) using GST-SLP-76 as peptide substrate incubated for 10 mins in presence of [gamma-33P]ATP by scintillation counter assay
Tyrosine-protein kinase BTK, sequence (Q06187 whole entry): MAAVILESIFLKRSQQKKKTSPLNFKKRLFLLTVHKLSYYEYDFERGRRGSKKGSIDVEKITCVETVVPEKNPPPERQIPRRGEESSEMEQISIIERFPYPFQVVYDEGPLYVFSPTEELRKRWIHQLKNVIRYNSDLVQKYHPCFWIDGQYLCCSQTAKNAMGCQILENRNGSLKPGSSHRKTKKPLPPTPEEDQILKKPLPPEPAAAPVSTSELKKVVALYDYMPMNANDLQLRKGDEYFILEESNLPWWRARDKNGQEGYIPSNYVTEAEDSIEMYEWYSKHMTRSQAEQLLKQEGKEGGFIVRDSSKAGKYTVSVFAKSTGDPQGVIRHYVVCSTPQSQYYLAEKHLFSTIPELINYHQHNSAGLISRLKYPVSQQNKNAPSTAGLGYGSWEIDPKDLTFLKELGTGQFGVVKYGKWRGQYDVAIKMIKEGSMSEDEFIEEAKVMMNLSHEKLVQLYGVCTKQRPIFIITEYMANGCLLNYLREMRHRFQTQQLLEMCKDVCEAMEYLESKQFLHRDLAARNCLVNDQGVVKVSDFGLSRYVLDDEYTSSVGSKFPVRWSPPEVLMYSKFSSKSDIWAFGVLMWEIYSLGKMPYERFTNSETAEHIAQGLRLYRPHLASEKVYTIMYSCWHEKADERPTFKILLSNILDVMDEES

[9] = target: Tyrosine-protein kinase Lck (Homo sapiens, UniProt P06239); assay: Inhibition of Lck (unknown origin) using GST-SLP-76 as peptide substrate incubated for 10 mins in presence of [gamma-33P]ATP by scintillation counter assay
Tyrosine-protein kinase Lck, sequence (P06239 whole entry): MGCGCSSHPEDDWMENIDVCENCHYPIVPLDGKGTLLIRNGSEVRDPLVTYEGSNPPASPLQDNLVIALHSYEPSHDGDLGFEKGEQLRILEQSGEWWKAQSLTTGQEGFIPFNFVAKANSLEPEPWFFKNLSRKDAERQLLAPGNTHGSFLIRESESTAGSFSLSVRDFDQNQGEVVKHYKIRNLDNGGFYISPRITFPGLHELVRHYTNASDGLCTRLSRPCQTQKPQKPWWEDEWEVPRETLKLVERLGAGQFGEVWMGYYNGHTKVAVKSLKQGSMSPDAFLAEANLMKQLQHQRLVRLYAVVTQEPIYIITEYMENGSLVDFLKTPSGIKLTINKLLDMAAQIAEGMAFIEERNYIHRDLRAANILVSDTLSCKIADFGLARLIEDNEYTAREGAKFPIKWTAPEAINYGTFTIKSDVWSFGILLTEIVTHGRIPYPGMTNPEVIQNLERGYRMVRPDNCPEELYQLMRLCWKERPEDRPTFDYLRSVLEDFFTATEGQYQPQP

[10] = target: Cyclin-dependent kinase 2 (Homo sapiens, UniProt P24941); assay: Inhibition of Cdk2 (unknown origin) using GST-SLP-76 as peptide substrate incubated for 10 mins in presence of [gamma-33P]ATP by scintillation counter assay
[11] = target: Tyrosine-protein kinase SYK (Homo sapiens, UniProt P43405); assay: Inhibition of Syk (unknown origin) using GST-SLP-76 as peptide substrate incubated for 10 mins in presence of [gamma-33P]ATP by scintillation counter assay

Mitogen-activated protein kinase 3, sequence (P27361 whole entry): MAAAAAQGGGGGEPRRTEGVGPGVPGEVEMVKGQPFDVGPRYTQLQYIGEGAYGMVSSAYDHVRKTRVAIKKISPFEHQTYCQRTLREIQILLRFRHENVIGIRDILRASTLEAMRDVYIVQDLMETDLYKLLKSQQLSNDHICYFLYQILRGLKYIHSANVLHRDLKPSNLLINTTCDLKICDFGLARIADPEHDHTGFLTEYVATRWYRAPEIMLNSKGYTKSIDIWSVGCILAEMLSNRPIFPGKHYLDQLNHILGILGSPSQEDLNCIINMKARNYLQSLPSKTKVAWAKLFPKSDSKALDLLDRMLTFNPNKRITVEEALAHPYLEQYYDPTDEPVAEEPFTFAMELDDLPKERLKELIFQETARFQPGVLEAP

SMILES: CC(=O)N1CCN(C(=O)c2cccc(CSc3cnc(NC(=O)c4ccc(N(C)C)cc4)s3)c2)CC1
- IC50 [1]: > 50 µM
- IC50 [2]: 20 µM
- IC50 [3]: > 50 µM
- IC50 (Protein kinase C (PKC)): > 50 µM
- IC50 [4]: > 50 µM
- IC50 [5]: > 50 µM
- IC50 [6]: > 50 µM
- IC50 [7]: > 50 µM
- IC50 [8]: 49 µM
- IC50 [9]: > 25 µM
- IC50 [10]: 27 µM
- IC50 [11]: > 50 µM
